Reference: patent publication US5820881A, “Microspheres of diamide-dicarboxylic acids” (Emisphere Technologies, Inc., priority 1995, dated 1998)
“Also recorded” adds a separate entry of the source. Where a name gives a salt, the structure may show the parent alone. Read-outs that look alike come from different tables or passages of the source.

Columns and labels:
Type in all cases: physicochemical
[1] = pKa determination by titration
Experimental: (§1) Each of the compounds of Examples 4-6 and 15 was evaluated by monitoring the change in the solution turbidity, while altering the pH at a fixed Phe amide concentration or by holding the pH constant and varying the concentration of the amide substrate. Each concentration dependence was determined in 500 mM citric acid from a plot of the solution transmittance (% T) vs. concentration. […] The influence of pH on solution turbidity was studied in solutions containing 50 mM in 500 mM lithium citrate buffers. The percent transmittance (% T) was <0.5% at pH 2.67 and >95% at pH 3.26. The pKas were determined by titration of each Phe amide substrate. As expected, the pKas of these Phe diamide diacids were all very similar.

[2] = Microsphere formation (Li2CO3 solution mixed with aqueous citric acid; microscopic examination); settings: for Microsphere formation / self-assembly: aqueous salt solution + citric acid; for Diameter of spheres: from 10 μm to submicrons, light microscopy
Experimental: The bis-amide dicarboxylic acid prepared according to the method of Example 4 was dissolved in 0.1 mL of aqueous Li2 CO3 (0.1M) to yield a clear solution of the lithium salt in deionized water. 50 μL of the 0.1M solution was mixed with 50 μL of 1M aqueous citric acid and shaken. A white suspension was generated.
The method of Example 17 was followed, substituting the bis-amide dicarboxylic acid prepared according to the method of Example 5. A white suspension was generated.
The method of Example 17 was followed, substituting the bis-amide dicarboxylic acid prepared according to the method of Example 6. A white suspension was generated.
The method of Example 17 was followed, substituting the bis-amide dicarboxylic acid prepared according to the method of Example 15. A white suspension was generated.

[3] = Concentration dependence of microsphere formation (turbidity, % transmittance at 600 nm); settings: for Concentration of amide above which a dense suspension (% T < 0.5) of microspheres is formed: 500 mM citric acid (pH 2.4)
Experimental: A stock solution containing the lithium salt of the diamide prepared according to the method of Example 4 was prepared by stepwise addition of exactly two equivalents of a standardized solution of LiOH (stored under argon to prevent precipitation of lithium carbonate). The final concentration of the dilithium salt of the diamine was 100 mM, and the pH was always between 7.0 and 8.0. The solution was filtered through a 0.2 μm membrane prior to use. An appropriate amount of the 100 mM stock solution was diluted with deionized water to 500 μL. Microsphere formation was then initiated by addition of an equal volume of 1M citric acid, so that the final concentration ranged from 0 to 50 mM dilithium diamide in 500 mM citric acid with the pH below 2.5. Turbidity was assessed over this range of concentrations by measuring % transmittance at 600 nm. […]
as §1

[4] = pH dependence of microsphere formation (turbidity, % transmittance at 600 nm); settings: for pH at which % T is > 95%: amide concentration 50 mM in 500 mM Li citrate
Experimental: 500 μL of 100 mM dilithium diamide solution prepared according to the method of Example 21 was mixed with an equal volume of one of a series of 1M lithium citrate buffers containing between 0 to 1 equivalent of lithium hydroxide so that the final measured pH of the mixture ranged from ca. 2.4 to 4.0. Turbidity was assessed over this pH range by measuring % transmittance at 600 nm.
The method of Example 25 was followed substituting the bis-amide dicarboxylic acid prepared according to the method of Example 5.
The method of Example 25 was followed substituting the bis-amide dicarboxylic acid prepared according to the method of Example 6.
The method of Example 25 was followed substituting the bis-amide dicarboxylic acid prepared according tot he method of Example 15.
as §1

[5] = SEM/TEM examination of microcapsules (tannic acid / OsO4 fixation)
Experimental: The sodium salt of the bis-amide dicarboxylic acid of Example 6 was prepared. A white suspension was prepared by combining 100 μL of 0.43M citric acid and 50 μL of a 0.1M aqueous solution of the sodium salt of the diamide. The aqueous suspension was deposited on polylysine-coated glass coverslips and fixed with 2% OsO4 for 4 hours. The sample was washed with distilled water, air dried and sputter coated with gold. SEM photographs are illustrated in FIGS. 3a and 3b.
A white suspension was also prepared by adding a solution containing 50 μL of a 0.86M citric acid and 50 μL of 3 wt. % tannic acid to 50 μL of a 100 mM aqueous solution of the sodium salt of the diamide. The pH was lowered from 7.7 to 2.4. The aqueous solution was deposited on a Nucleopore filter and fixed with 4% OsO4 for 4 hours. The sample was washed with distilled water and 95% EtOH and was air dried. The sample was dispersed in 100% LR white resin and polymerized in an oven at 60° C. TEM photographs are illustrated in FIG. 4.
Estimates of the microcapsule shell thickness (150 nm) would require approximately 100 molecules of the diamide of Example 6 oriented end-to-end to traverse the microcapsule shell. However, a stacking of the bis amides seems more likely. A stacked array would allow for a greater number of assembled tetrapeptides to traverse the capsule shell. […] However, some tannic acid may be intercalated in the microsphere wall.

pKa ([1]; read-out: pKa1)	pKa ([1]; read-out: pKa2)	Diameter of spheres [2]	Concentration of amide above which a dense suspension (% T < 0.5) of microspheres is formed [3]	pH at which % T is > 95% [4]	SMILES	Microsphere formation / self-assembly [2]	other results
3.67	4.7	≤ 10 μm	30000 µM	3.26	O=C(CC(=O)N[C@@H](Cc1ccccc1)C(=O)O)N[C@@H](Cc1ccccc1)C(=O)O [Example 4, bis(Nα-amido-L-phenylalanine) malonate]	formation of tiny spheres; also recorded: generated microcapsules	% transmittance, clear solution ([3]; 500 mM citric acid, before transition at 30 mM, 600 nm): > 95 % T; % transmittance, dense suspension of microcapsules ([3]; 500 mM citric acid, diamide above 30 mM, 600 nm): 0.2 % T; Percent transmittance (% T) at pH 2.67 ([4]; 50 mM in 500 mM lithium citrate buffers, pH 2.67): < 0.5%; Percent transmittance (% T) at pH 3.26 ([4]; 50 mM in 500 mM lithium citrate buffers, pH 3.26): > 95%; Estimated number of diamide molecules per one anionic species sufficient to abort assembly ([4]; estimated from pKa and pH measurements): ~30 molecules
3.55	4.62	≤ 10 μm	25000 µM	3.26	CC(C)(C(=O)N[C@@H](Cc1ccccc1)C(=O)O)C(=O)N[C@@H](Cc1ccccc1)C(=O)O [Example 5, bis(Nα-amido-L-phenylalanine) 1,1-dimethyl malonate]	formation of tiny spheres	
3.53	4.5	≤ 10 μm	13000 µM	3.26	O=C(O)[C@H](Cc1ccccc1)NC(=O)C1(C(=O)N[C@@H](Cc2ccccc2)C(=O)O)CC1 [Example 6, bis(Nα-amido-L-phenylalanine) 1,1 -cyclopropane dicarboxylate]	formation of tiny spheres	Incorporation of tannic acid into the microsphere shell [5]: Little tannic acid was incorporated into the microsphere shell; Molecules oriented end-to-end required to traverse the microcapsule shell ([5]; shell thickness 150 nm): approximately 100 molecules; Estimated microcapsule shell thickness ([5]; sodium salt, citric acid + tannic acid, TEM): ~150 nm
					O=C(N[C@@H](Cc1ccccc1)C(=O)O)C(=O)N[C@@H](Cc1ccccc1)C(=O)O [Example 8, bis(Nα-amido-L-phenylalanine) oxalate]	neither the oxalic derivative of Example 8 nor the succinic analogue of Example 12 did; also recorded: did not form microspheres	
					O=C(O)CCC(=O)N[C@@H](Cc1ccccc1)C(=O)O [Example 11, (Nα-amido-L-phenylalanine) monosuccinate]	did not form microspheres	
					O=C(CCC(=O)N[C@@H](Cc1ccccc1)C(=O)O)N[C@@H](Cc1ccccc1)C(=O)O [Example 12, bis(Nα-amido-L-phenylalanine) succinate]	neither the oxalic derivative of Example 8 nor the succinic analogue of Example 12 did; also recorded: does not self assemble; also recorded: did not form microspheres	
3.7	4.87	≤ 10 μm	23000 µM	3.26	O=C(/C=C\C(=O)N[C@@H](Cc1ccccc1)C(=O)O)N[C@@H](Cc1ccccc1)C(=O)O [Example 15, bis(Nα-amido-L-phenylalanine) maleate]	formation of tiny spheres; also recorded: generated microcapsules	
					O=C(/C=C/C(=O)N[C@@H](Cc1ccccc1)C(=O)O)N[C@@H](Cc1ccccc1)C(=O)O [Example 16, bis(Nα-amido-L-phenylalanine) fumarate]	did not form microspheres	
